Laboratory results from PubChem BioAssay (NCI).
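1) Cells in 96-well plates. 2) Compound, 48 h, 5 concentrations. 3) Linear interpolation between surrounding doses. 4) Unreached endpoint = highest concentration. GI50 marks 50% less growth. TGI denotes the concentration required for complete inhibition of growth.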

Experiments:
Test in all cases: NCI anticancer screen, dose series, 48 h
UACC-257 melanoma = test system: UACC-257 melanoma
T-47D breast = test system: T-47D breast
CCRF-CEM leukemia = test system: CCRF-CEM leukemia
LOX IMVI melanoma = test system: LOX IMVI melanoma
SW-620 colon = test system: SW-620 colon
SN12C renal = test system: SN12C renal
K-562 leukemia = test system: K-562 leukemia
MCF7 breast = test system: MCF7 breast
MALME-3M melanoma = test system: MALME-3M melanoma
SF-268 CNS = test system: SF-268 CNS
NCI-H460 lung = test system: NCI-H460 lung
MOLT-4 leukemia = test system: MOLT-4 leukemia
SR leukemia = test system: SR leukemia
KM12 colon = test system: KM12 colon
UACC-62 melanoma = test system: UACC-62 melanoma
UO-31 renal = test system: UO-31 renal
SK-OV-3 ovarian = test system: SK-OV-3 ovarian
SNB-19 CNS = test system: SNB-19 CNS
MDA-MB-468 breast = test system: MDA-MB-468 breast
A549 NSCLC = test system: A549 NSCLC
SNB-75 CNS = test system: SNB-75 CNS
HCT-116 colon = test system: HCT-116 colon
U251 CNS = test system: U251 CNS
OVCAR-8 ovarian = test system: OVCAR-8 ovarian
MDA-MB-435 = test system: MDA-MB-435
NCI-H23 lung = test system: NCI-H23 lung
IGROV1 ovarian = test system: IGROV1 ovarian
OVCAR-3 ovarian = test system: OVCAR-3 ovarian
NCI-H226 lung = test system: NCI-H226 lung
OVCAR-5 ovarian = test system: OVCAR-5 ovarian

Work on `O=c1ccc(Cn2c(C(F)(F)F)cc3c(Cl)ncnc32)c[nH]1` yielded a TGI (UACC-257 melanoma) of 12.9 µM, a GI50 (T-47D breast) of 30.3 µM and a TGI (T-47D breast) of over 100 µM. For the same molecule, the GI50 (CCRF-CEM leukemia) was 4.32 µM, the TGI (CCRF-CEM leukemia) was over 100 µM and the GI50 (LOX IMVI melanoma) was 1.65 µM. The TGI (LOX IMVI melanoma) was 3.11 µM, the GI50 (SW-620 colon) was 5.55 µM and the TGI (SW-620 colon) was 26.3 µM. It also gave a GI50 (SN12C renal) of 6.42 µM, a TGI (SN12C renal) of 23.4 µM and a GI50 (K-562 leukemia) of 2.83 µM. For the same molecule, the TGI (K-562 leukemia) was over 100 µM, the GI50 (MCF7 breast) was 21.1 µM and the TGI (MCF7 breast) was 67.9 µM. For the same molecule, the GI50 (MALME-3M melanoma) was 15.9 µM, the TGI (MALME-3M melanoma) was 35 µM and the GI50 (SF-268 CNS) was 10.6 µM. For the same molecule, the TGI (SF-268 CNS) was 28.9 µM, the GI50 (NCI-H460 lung) was 12 µM and the TGI (NCI-H460 lung) was 36.2 µM. The GI50 (MOLT-4 leukemia) was 3.21 µM, the TGI (MOLT-4 leukemia) was 17.2 µM and the GI50 (SR leukemia) was 2.73 µM. It also gave a TGI (SR leukemia) of 11.8 µM, a GI50 (KM12 colon) of 17.9 µM and a TGI (KM12 colon) of 40.3 µM. For the same molecule, the GI50 (UACC-62 melanoma) was 5.55 µM, the TGI (UACC-62 melanoma) was 19.7 µM and the GI50 (UO-31 renal) was 5.05 µM. The TGI (UO-31 renal) was 19.2 µM, the GI50 (SK-OV-3 ovarian) was 44.3 µM and the TGI (SK-OV-3 ovarian) was over 100 µM. The GI50 (SNB-19 CNS) was 20.7 µM, the TGI (SNB-19 CNS) was 59.4 µM and the GI50 (MDA-MB-468 breast) was 2.1 µM. For the same molecule, the TGI (MDA-MB-468 breast) was 5.73 µM, the GI50 (A549 NSCLC) was 64.8 µM and the TGI (A549 NSCLC) was over 100 µM. For the same molecule, the GI50 (SNB-75 CNS) was 10.7 µM, the TGI (SNB-75 CNS) was 23.2 µM and the GI50 (HCT-116 colon) was 3.51 µM. For the same molecule, the TGI (HCT-116 colon) was 29.2 µM, the GI50 (U251 CNS) was 22.5 µM and the TGI (U251 CNS) was 69.2 µM. The GI50 (OVCAR-8 ovarian) was 3.51 µM, the TGI (OVCAR-8 ovarian) was 17.3 µM and the GI50 (MDA-MB-435) was 4.69 µM. The TGI (MDA-MB-435) was 20.5 µM, the GI50 (NCI-H23 lung) was 3.97 µM and the TGI (NCI-H23 lung) was 18.4 µM. It also gave a GI50 (IGROV1 ovarian) of 2.29 µM, a TGI (IGROV1 ovarian) of 6.09 µM and a GI50 (OVCAR-3 ovarian) of 14.9 µM. For the same molecule, the TGI (OVCAR-3 ovarian) was 32.8 µM, the GI50 (NCI-H226 lung) was 31.7 µM and the TGI (NCI-H226 lung) was over 100 µM. The GI50 (OVCAR-5 ovarian) was 61.7 µM and the TGI (OVCAR-5 ovarian) was over 100 µM.
